These are literature values, as cited in patent US10086029B2, “Fermented plant extracts, methods of production and uses” (KEFIPLANT INC., priority 2006, dated 2018).

The test system of this data set is xanthine oxidase. The conditions noted are these: glycoside versus aglycone, literature study.

Molecules are shown by their SMILES.

On to `C[C@@H]1O[C@@H](OC[C@H]2O[C@@H](Oc3c(-c4ccc(O)c(O)c4)oc4cc(O)cc(O)c4c3=O)[C@H](O)[C@@H](O)[C@@H]2O)[C@H](O)[C@H](O)[C@H]1O` [rutine], for which the “Activity as inhibitor of xanthine oxidase relative to quercetine” value is “nearly ten times less active than quercetine”.
